Legend:
Settings in all cases: incubation time: 72 h
[1] = test system: CAL-120; experiment: normalised response (% of control), CellTox Green; higher = less cell death (100 = DMSO, 0 = benzethonium chloride kill control)
Procedure, shortened: (§1)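 Plates were normalised with 0.1 % DMSO as 100 and a positive kill control as 0. Breast cancer cell lines in 20 µl suspension had been seeded into 384-well plates with compound at 5 concentrations in 10-fold steps over a compound-specific 10,000-fold range, incubated 72 h, and read for CellTox Green fluorescence (485/520 nm) followed by CellTiter-Glo luminescence. Each value is the normalised signal at a single concentration.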

[2] = test system: BT-474; experiment: as above
Procedure, shortened: as §1

[3] = test system: MFM-223; experiment: as above
Procedure, shortened: as §1

[4] = test system: DU-4475; experiment: as above
Procedure, shortened: as §1

[5] = test system: MDA-MB-436; experiment: as above
Procedure, shortened: as §1

[6] = test system: HCC1599; experiment: as above
Procedure, shortened: as §1

[7] = test system: MDA-MB-468; experiment: as above
Procedure, shortened: as §1

[8] = test system: MDA-MB-453; experiment: as above
Procedure, shortened: as §1

[9] = test system: CAL-51; experiment: as above
Procedure, shortened: as §1

[10] = test system: HCC1937; experiment: as above
Procedure, shortened: as §1

[11] = test system: MDA-MB-231; experiment: as above
Procedure, shortened: as §1

[12] = test system: BT-549; experiment: as above
Procedure, shortened: as §1

[13] = test system: MCF-10A; experiment: as above
Procedure, shortened: as §1

[14] = test system: CAL-148; experiment: as above
Procedure, shortened: as §1

[15] = test system: Hs578T; experiment: as above
Procedure, shortened: as §1

[16] = test system: HCC1143; experiment: as above
Procedure, shortened: as §1

[17] = test system: CAL-85-1; experiment: as above
Procedure, shortened: as §1

[18] = test system: CAL-120; experiment: normalised response (% of control), CellTiter-Glo; higher = more viable cells (100 = DMSO, 0 = benzethonium chloride kill control)
Experimental: (§2)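 DSRT, 72 h incubation, CellTox Green / CellTiter-Glo readout. Signal is normalised to DMSO and benzethonium chloride controls. Value is the normalised response at dose 3.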

[19] = test system: BT-474; experiment: as above
Experimental: as §2

[20] = test system: MFM-223; experiment: as above
Experimental: as §2

[21] = test system: HDQ-P1; experiment: as above
Experimental: as §2

[22] = test system: DU-4475; experiment: as above
Experimental: as §2

[23] = test system: MDA-MB-436; experiment: as above
Experimental: as §2

[24] = test system: HCC1599; experiment: as above
Experimental: as §2

[25] = test system: MDA-MB-468; experiment: as above
Experimental: as §2

[26] = test system: SK-BR-3; experiment: as above
Experimental: as §2

[27] = test system: MDA-MB-453; experiment: as above
Experimental: as §2

[28] = test system: CAL-51; experiment: as above
Experimental: as §2

[29] = test system: HCC1937; experiment: as above
Experimental: as §2

[30] = test system: MDA-MB-231; experiment: as above
Experimental: as §2

[31] = test system: BT-549; experiment: as above
Experimental: as §2

[32] = test system: MCF-10A; experiment: as above
Experimental: as §2

[33] = test system: CAL-148; experiment: as above
Experimental: as §2

[34] = test system: Hs578T; experiment: as above
Experimental: as §2

[35] = test system: HCC1143; experiment: as above
Experimental: as §2

[36] = test system: CAL-85-1; experiment: as above
Experimental: as §2

[37] = test system: HDQ-P1; experiment: normalised response (% of control), CellTox Green; higher = less cell death (100 = DMSO, 0 = benzethonium chloride kill control)
Procedure, shortened: as §1

| SMILES | normalised response [1] [%] | normalised response [2] [%] | normalised response [3] [%] | normalised response [4] [%] | normalised response [5] [%] | normalised response [6] [%] | normalised response [7] [%] | normalised response [8] [%] | normalised response [9] [%] | normalised response [10] [%] | normalised response [11] [%] | normalised response [12] [%] | normalised response [13] [%] | normalised response [14] [%] | normalised response [15] [%] | normalised response [16] [%] | normalised response [17] [%] | normalised response [18] [%] | normalised response [19] [%] | normalised response [20] [%] | normalised response [21] [%] | normalised response [22] [%] | normalised response [23] [%] | normalised response [24] [%] | normalised response [25] [%] | normalised response [26] [%] | normalised response [27] [%] | normalised response [28] [%] | normalised response [29] [%] | normalised response [30] [%] | normalised response [31] [%] | normalised response [32] [%] | normalised response [33] [%] | normalised response [34] [%] | normalised response [35] [%] | normalised response [36] [%] | normalised response [37] [%] |
| --- | --- | --- | --- | --- | --- | --- | --- | --- | --- | --- | --- | --- | --- | --- | --- | --- | --- | --- | --- | --- | --- | --- | --- | --- | --- | --- | --- | --- | --- | --- | --- | --- | --- | --- | --- | --- | --- |
| COc1cc2ncnc(Nc3ccc(F)c(Cl)c3)c2cc1OCCCN1CCOCC1 [Gefitinib] (100 nM) | 83.3 | 100 | 73.2 | 99.9 | 98.3 | 102 | 92.2 | 101 | 89.6 | 87.2 | 70.7 | 94.8 | 101 | 87.3 | 68 | 116 | 93.8 | 99.4 | 96.5 | 101 | 80.8 | 103 | 104 | 82.5 | 96 | 94.8 | 96.5 | 90.7 | 93.3 | 106 | 91.8 | 59.3 | 113 | 99.5 | 103 | 88 |  |
| CN(C)c1nc(N(C)C)nc(N(C)C)n1 [Altretamine] (100 nM) | 106 | 102 | 98.5 | 104 | 102 | 104 | 123 | 100 | 109 | 110 | 118 | 89.1 | 101 | 106 |  | 113 | 103 | 103 | 98.4 | 106 | 98.2 | 104 | 99.1 | 99.9 | 99 | 112 | 105 | 107 | 99.2 | 99.5 | 95.4 | 105 | 106 | 106 | 97.9 | 102 | 64.1 |
| O=C(Nc1ccncc1)C(=O)c1cn(Cc2ccc(Cl)cc2)c2ccccc12 [Indibulin] (100 nM) | 93.1 | 101 | 105 | 105 | 90.3 | 111 | 136 | 100 | 100 | 98.3 | 105 | 94.8 | 94.4 | 105 |  | 120 | 81.3 | 97.5 | 98.1 | 98.5 | 96.8 | 106 | 92 | 89.1 | 95.8 | 96.2 | 89.1 | 62 | 91.5 | 106 | 81.8 | 108 | 113 | 100 | 98.5 | 87.7 | 111 |
| O=P1(N(CCCl)CCCl)NCCCO1 (stereo not given) [Cyclophosphamide] (400 nM) | 102 | 98.5 | 87.4 | 99 | 104 | 98.8 |  | 100 | 92.2 | 93.7 | 107 | 101 |  | 89.6 | 84.3 | 116 | 101 | 97.8 | 99 | 102 | 99.6 | 105 | 97.1 | 111 | 102 | 109 | 108 | 93.8 | 94.6 | 98.3 | 104 | 103 | 102 | 98.9 | 98.7 | 99.9 |  |
| CCOC(=O)CCNc1cc(N2CCc3ccccc3CC2)nc(-c2ccccn2)n1 [GSK-J4] (1000 nM) | 97 | 100 | 86.8 | 106 | 84.1 | 95.1 | 110 | 102 | 86.2 | 92.9 | 112 | 97.1 | 103 | 97.7 | 80.2 |  | 113 | 105 | 99.7 | 93.6 | 95.4 | 99.5 | 89.8 | 100 | 67.7 | 98.5 | 70.3 | 57.2 | 84.7 | 95.8 | 47.3 | 106 | 92.7 | 98.3 | 103 | 96.9 | 89.9 |
| Oc1ccc2c(c1)CC[C@H](c1ccccc1)[C@@H]2c1ccc(OCCN2CCCC2)cc1 [Lasofoxifene] (10 nM) | 104 | 102 | 102 | 104 | 116 | 114 |  | 110 | 110 | 77 | 114 | 108 | 107 | 90.8 |  | 117 | 99.8 | 114 | 102 | 105 | 95.3 | 107 | 109 | 106 | 90.8 | 112 | 99.1 | 91.3 | 95.5 | 110 | 115 | 108 | 111 | 103 | 104 | 103 | 90.8 |
| COc1cc2/c(=N/c3ccc(Br)cc3F)nc[nH]c2cc1OCC1CCN(C)CC1 [Vandetanib] (10 nM) | 97 | 95.4 | 99.1 | 91.9 | 55 | 81.1 | 104 | 80.8 | 95.5 | 84.5 | 85.3 | 98.2 | 83.3 | 89.6 |  | 91.8 | 101 | 95.7 | 87.1 | 86.5 | 91.7 | 93.2 | 97.2 | 85.7 | 87 | 82.3 | 72.2 | 87.1 | 94.6 | 92.5 | 98 | 78.3 | 89 | 94.5 | 92.1 | 90.2 |  |
| Nc1cc(C(F)(F)F)c(-c2cc(N3CCOCC3)nc(N3CCOCC3)n2)cn1 [Buparlisib] (100 nM) | 96.8 | 99 | 96.7 | 98.6 | 85.7 | 93.5 | 163 | 91 | 94.8 | 78.7 | 78.2 | 98.1 | 102 | 93.1 | 104 |  | 109 | 96.2 | 97.3 | 86.9 | 95.2 | 95.9 | 98.2 | 111 | 92.1 | 91.2 | 97.8 | 88.8 | 98 | 93 | 110 | 88.5 | 101 | 99.3 | 99 | 101 | 96.4 |
| CO[C@H]1C[C@@H]2CC[C@@H](C)[C@@](O)(O2)C(=O)C(=O)N2CCCC[C@H]2C(=O)O[C@H]([C@H](C)C[C@@H]2CC[C@@H](OP(C)(C)=O)[C@H](OC)C2)CC(=O)[C@H](C)/C=C(\C)[C@@H](O)[C@@H](OC)C(=O)[C@H](C)C[C@H](C)/C=C/C=C/C=C/1C [Ridaforolimus] (1 nM) | 103 | 101 | 105 | 98.9 | 75.3 | 111 | 115 | 101 | 106 | 119 | 107 | 84.4 | 94.6 | 82.1 | 81 | 111 | 95.2 | 80.5 | 94 | 84.7 | 91.7 | 92.7 | 88.3 | 88.1 | 62.1 | 73.5 | 83.8 | 90.9 | 79.2 | 93.7 | 68.4 | 107 | 89.3 | 71.7 | 81.1 | 74.4 |  |

Reference: the supplement of paper PMC4862054
